# Assay results published in doi:10.1101/2022.01.20.477145v2 (biorxiv, 2022).
# Molecular target: NL-PRMT5 (NLuc-PRMT5) (Homo sapiens, UniProt O14744)
# Assay: NanoBRET target engagement, displacement of CBH-002
# Assay type: cell-based
# Chain of NL-PRMT5 (NLuc-PRMT5) (O14744 2-637): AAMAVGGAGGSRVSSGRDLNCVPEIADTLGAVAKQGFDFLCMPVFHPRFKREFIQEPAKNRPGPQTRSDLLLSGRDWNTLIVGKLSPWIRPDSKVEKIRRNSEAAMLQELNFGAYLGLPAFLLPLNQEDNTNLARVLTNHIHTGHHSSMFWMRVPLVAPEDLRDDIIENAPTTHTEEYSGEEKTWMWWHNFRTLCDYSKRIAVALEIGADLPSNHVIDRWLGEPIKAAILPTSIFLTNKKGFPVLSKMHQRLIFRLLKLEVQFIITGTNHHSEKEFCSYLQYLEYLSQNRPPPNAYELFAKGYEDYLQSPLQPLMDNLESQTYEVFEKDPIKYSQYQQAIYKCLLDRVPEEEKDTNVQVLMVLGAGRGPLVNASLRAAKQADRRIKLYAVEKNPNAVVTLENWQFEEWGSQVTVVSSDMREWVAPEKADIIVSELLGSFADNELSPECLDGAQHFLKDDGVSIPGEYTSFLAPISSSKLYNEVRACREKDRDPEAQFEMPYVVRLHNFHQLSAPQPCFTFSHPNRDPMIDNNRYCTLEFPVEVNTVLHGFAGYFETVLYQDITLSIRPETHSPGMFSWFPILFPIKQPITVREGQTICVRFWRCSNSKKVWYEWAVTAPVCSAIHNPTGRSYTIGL
structure (smiles),measurement,value
Nc1ncnc2c1ccn2[C@@H]1O[C@H]([C@H](O)c2ccccc2)[C@@H](O)[C@H]1O [LLY-283],EC50,300 ± 100 nM
